Test results published in patent US8435978B2, “Substituted sulfonamide compounds” (Gruenenthal GmbH, priority 2006, dated 2013).
Where a name gives a salt, the structure may show the parent alone.

Columns and labels:
[1] = target: T1, human B1R receptor (Homo sapiens, UniProt P46663); assay: Functional study on the bradykinin receptor 1 (B1R), FLIPR Ca2+ assay, hB1R cells; format: cell-based; settings: CHO-K1, test substance 10 μM, agonist Lys-Des-Arg9-bradykinin 0.5 nM, % inhibition compared with the maximum achievable inhibition, read-out: B1R Antagonism, human [10 μM] % Inhibition
T1 construct: host or cells: CHO K1 cells (Chinese hamster ovary), stably transfected
T1 sequence (P46663 1-353): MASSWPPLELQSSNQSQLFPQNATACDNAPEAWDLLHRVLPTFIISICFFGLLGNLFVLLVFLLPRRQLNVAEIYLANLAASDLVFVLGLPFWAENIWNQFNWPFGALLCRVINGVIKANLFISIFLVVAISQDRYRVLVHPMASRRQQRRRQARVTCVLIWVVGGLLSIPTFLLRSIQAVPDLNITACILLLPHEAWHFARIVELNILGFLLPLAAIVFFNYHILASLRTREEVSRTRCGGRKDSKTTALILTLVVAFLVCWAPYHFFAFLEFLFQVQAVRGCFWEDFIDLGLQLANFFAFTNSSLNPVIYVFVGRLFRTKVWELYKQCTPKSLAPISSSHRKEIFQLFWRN
Method in brief: (§1)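 CHO K1 cells stably expressing human or rat B1R, Fluo-4-loaded; test compound 10 μM added first (activation % vs agonist), then after 10 min 0.5 nM Lys-Des-Arg9-bradykinin (human) or 100 nM Des-Arg9-bradykinin (rat). Ca2+ peak fluorescence by FLIPR; % inhibition relative to maximum achievable inhibition.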

[2] = target: T2, B1R receptor of the rat (Rattus norvegicus, UniProt P97583); assay: Functional study on the bradykinin receptor 1 (B1R), FLIPR Ca2+ assay, rB1R cells; format: cell-based; settings: CHO-K1, test substance 10 μM, agonist Des-Arg9-bradykinin 100 nM, % inhibition compared with the maximum achievable inhibition, read-out: B1R Antagonism, rat [10 μM] % Inhibition
T2 construct: host or cells: CHO K1 cells (Chinese hamster ovary), stably transfected
T2 sequence (P97583 1-337): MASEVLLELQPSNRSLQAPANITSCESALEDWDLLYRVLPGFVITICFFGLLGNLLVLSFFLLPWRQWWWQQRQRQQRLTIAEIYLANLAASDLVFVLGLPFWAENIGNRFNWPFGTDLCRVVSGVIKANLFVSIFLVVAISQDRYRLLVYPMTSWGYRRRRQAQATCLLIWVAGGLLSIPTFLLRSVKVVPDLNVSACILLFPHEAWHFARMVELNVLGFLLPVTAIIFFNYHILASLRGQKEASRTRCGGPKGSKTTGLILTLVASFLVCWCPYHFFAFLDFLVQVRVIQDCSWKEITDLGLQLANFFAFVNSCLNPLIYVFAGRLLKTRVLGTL
Method in brief: as §1

SMILES	inhibition at 10 µM [1] [%]	inhibition at 10 µM [2] [%]
COc1cc(C)c(S(=O)(=O)N2CCCCC2COCC(=O)Nc2cc(-c3cccc(F)c3)[nH]n2)c(C)c1 (stereo not drawn) [Example 542, N-(5-(3-fluorophenyl)-1H-pyrazol-3-yl)-2-((1-(4-methoxy-2,6-dimethylphenylsulfonyl)piperidin-2-yl)methoxy)acetamide]	49.2	107
CN1CCN(C2CCN(C(=O)COCC3CCCCN3S(=O)(=O)c3ccc(Cl)c(Cl)c3)CC2)CC1 (stereo not drawn) [Example 28, 2-[1-(3,4-dichloro-phenylsulfonyl)-piperidin-2-ylmethoxy]-1-[4-(4-methyl-piperazin-1-yl)-piperidin-1-yl]-ethanone]	84.7	0
CN1CCC(N2CCN(C(=O)COCC3CCCCN3S(=O)(=O)c3cc(Cl)sc3Cl)CC2)CC1 (stereo not drawn) [Example 170, 2-((1-(2,5-dichlorothiophen-3-ylsulfonyl)piperidin-2-yl)methoxy)-1-(4-(1-methylpiperidin-4-yl)piperazin-1-yl)ethanone dihydrochloride]	101	97.8
COc1ccc(-c2cc(NC(=O)COCC3CCCCN3S(=O)(=O)c3c(C)cc(OC)cc3C)n[nH]2)cc1 (stereo not drawn) [Example 543, 2-((1-(4-methoxy-2,6-dimethylphenylsulfonyl)piperidin-2-yl)methoxy)-N-(5-(4-methoxyphenyl)-1H-pyrazol-3-yl)acetamide]	21.1	105
COc1cc(C)c(S(=O)(=O)N2CCCC2COCC(=O)NCc2ccc(CN3CCCCC3)cc2)c(C)c1 (stereo not drawn) [Example 1, 2-[1-(4-methoxy-2,6-dimethyl-phenylsulfonyl)-pyrrolidin-2-ylmethoxy]-N-(4-piperidin-1-ylmethyl-benzyl)-acetamide]	105	107
COc1ccc(C(CNC(=O)COCC2CCCCN2S(=O)(=O)c2c(C)cc(OC)cc2C)N2CCCC2)cc1 (stereo not drawn) [Example 252, 2-((1-(4-methoxy-2,6-dimethylphenylsulfonyl)piperidin-2-yl)methoxy)-N-(2-(4-methoxyphenyl)-2-(pyrrolidin-1-yl)ethyl)acetamide]	102	97.9
O=C(COCC1CCCN1S(=O)(=O)c1c(Cl)cc(Cl)cc1Cl)NCc1ccc(N2CCOCC2)cc1 (stereo not drawn) [Example 580, N-(4-morpholinobenzyl)-2-((1-(2,4,6-trichlorophenylsulfonyl)pyrrolidin-2-yl)methoxy)acetamide]	39.1	88.5
COc1cc(C)c(S(=O)(=O)N2CCCCC2COCC(=O)NCCn2nccc2C)c(C)c1 (stereo not drawn) [Example 416, 2-((1-(4-methoxy-2,6-dimethylphenylsulfonyl)piperidin-2-yl)methoxy)-N-(2-(5-methyl-1H-pyrazol-1-yl)ethyl)acetamide]	50.2	101
COc1ccc(S(=O)(=O)N2CCCCC2CCOCC(=O)N2CCC(CCN3CCCCC3)CC2)cc1 (stereo not drawn) [Example 90, 2-(2-(1-(4-methoxyphenylsulfonyl)piperidin-2-yl)ethoxy)-1-(4-(2-(piperidin-1-yl)-ethyl)piperidin-1-yl)ethanone]	50	99.5
O=C(COCC1CCCCN1S(=O)(=O)c1c(Cl)cccc1Cl)N1CCN(CC2CCCCC2)CC1 (stereo not drawn) [Example 499, 1-(4-(cyclohexylmethyl)piperazin-1-yl)-2-((1-(2,6-dichlorophenylsulfonyl)piperidin-2-yl)methoxy)ethanone]	103	101
O=C(COCC1CCCCN1S(=O)(=O)c1cccc(C(F)(F)F)c1)N1CCCCC1c1cncc(Br)c1 (stereo not drawn) [Example 224, 1-(2-(5-bromopyridin-3-yl)piperidin-1-yl)-2-((1-(3-(trifluoromethyl)phenylsulfonyl)piperidin-2-yl)methoxy)ethanone]	72.1	52.8

Now from value to molecule:

inhibition at 10 µM [1] [%]	inhibition at 10 µM [2] [%]	SMILES
23.8	102	COc1cc(C)c(S(=O)(=O)N2CCCCC2COCC(=O)NCc2ccccc2N2CCCCC2)c(C)c1 (stereo not drawn) [Example 428, 2-((1-(4-methoxy-2,6-dimethylphenylsulfonyl)piperidin-2-yl)methoxy)-N-(2-(piperidin-1-yl)benzyl)acetamide]
103	98.2	COc1cc(C)c(S(=O)(=O)N2CCCCC2COCC(=O)N2CCC(c3ccncc3)CC2)c(C)c1 (stereo not drawn) [Example 201, 2-((1-(4-methoxy-2,6-dimethylphenylsulfonyl)piperidin-2-yl)methoxy)-1-(4-(pyridin-4-yl)piperidin-1-yl)ethanone]
56.6	103	COc1cc(C)c(S(=O)(=O)N2CCCC2COCC(=O)N2CCN(c3ccc(C)c(C)c3)CC2)c(C)c1 (stereo not drawn) [Example 347, 1-(4-(3,4-dimethylphenyl)piperazin-1-yl)-2-((1-(4-methoxy-2,6-dimethylphenylsulfonyl)pyrrolidin-2-yl)methoxy)ethanone]
50.1	9.11	Cc1cc(C)c(S(=O)(=O)N2Cc3ccccc3CC2COCC(=O)NCc2ccccc2N2CCN(C)CC2)c(C)c1 (stereo not drawn) [Example 75, N-[2-(4-methyl-piperazin-1-yl)-benzyl]-2-[2-(2,4,6-trimethyl-phenylsulfonyl)-1,2,3,4-tetrahydro-isoquinolin-3-ylmethoxy]-acetamide]
102	102	O=C(COCC1CCCCN1S(=O)(=O)c1c(Cl)cccc1Cl)N1CCN(c2ccc(F)cc2)CC1 (stereo not drawn) [Example 318, 2-((1-(2,6-dichlorophenylsulfonyl)piperidin-2-yl)methoxy)-1-(4-(4-fluorophenyl)piperazin-1-yl)ethanone]
102	98.8	COc1cc(C)c(S(=O)(=O)N2CCCCC2COCC(=O)Nc2ccc(-n3ccnc3C)cc2)c(C)c1 (stereo not drawn) [Example 427, 2-((1-(4-methoxy-2,6-dimethylphenylsulfonyl)piperidin-2-yl)methoxy)-N-(4-(2-methyl-1H-imidazol-1-yl)phenyl)acetamide]
47.1	101	COc1cc(C)c(S(=O)(=O)N2CCCCC2COCC(=O)N2CCN(c3nc(-c4ccccc4)cs3)CC2)c(C)c1 (stereo not drawn) [Example 402, 2-((1-(4-methoxy-2,6-dimethylphenylsulfonyl)piperidin-2-yl)methoxy)-1-(4-(4-phenylthiazol-2-yl)piperazin-1-yl)ethanone]
103	97.9	COc1cc(OC)cc(N2CCN(C(=O)COCC3CCCN3S(=O)(=O)c3c(C)cc(OC)cc3C)CC2)c1 (stereo not drawn) [Example 503, 1-(4-(3,5-dimethoxyphenyl)piperazin-1-yl)-2-((1-(4-methoxy-2,6-dimethylphenylsulfonyl)pyrrolidin-2-yl)methoxy)ethanone]
74	101	COc1cc(C)c(S(=O)(=O)N2CCCC2COCC(=O)NC(CN2CCCC2)c2ccccc2)c(C)c1 (stereo not drawn) [Example 505, 2-((1-(4-methoxy-2,6-dimethylphenylsulfonyl)pyrrolidin-2-yl)methoxy)-N-(1-phenyl-2-(pyrrolidin-1-yl)ethyl)acetamide]
103	95.5	COc1cc(C)c(S(=O)(=O)N2CCCCC2COCC(=O)N2CCN(c3ccc(F)cc3)CC2)c(C)c1 (stereo not drawn) [Example 289, 1-(4-(4-fluorophenyl)piperazin-1-yl)-2-((1-(4-methoxy-2,6-dimethylphenylsulfonyl)piperidin-2-yl)methoxy)ethanone]
105	97.9	COc1cc(C)c(S(=O)(=O)N2Cc3ccccc3C[C@H]2COCC(=O)N2CCN(CC3CCN(C)CC3)CC2)c(C)c1 [Example 185, (S)-2-((2-(4-methoxy-2,6-dimethylphenylsulfonyl)-1,2,3,4-tetrahydroisoquinolin-3-yl)methoxy)-1-(4-((1-methylpiperidin-4-yl)methyl)piperazin-1-yl)ethanone]
85.8	99.8	COc1cc(C)c(S(=O)(=O)N2CCCC2COCC(=O)N2CCCC2Cc2cccc(C)n2)c(C)c1 (stereo not drawn) [Example 448, 2-((1-(4-methoxy-2,6-dimethylphenylsulfonyl)pyrrolidin-2-yl)methoxy)-1-(2-((6-methylpyridin-2-yl)methyl)pyrrolidin-1-yl)ethanone]
32.3	99.1	COc1cc(C)c(S(=O)(=O)N2Cc3ccccc3CC2COCC(=O)N2CCN(c3ccccc3)CC2)c(C)c1C (stereo not drawn) [Example 479, 2-((2-(4-Methoxy-2,3,6-trimethylphenylsulfonyl)-1,2,3,4-tetrahydroisoquinolin-3-yl)methoxy)-1-(4-phenylpiperazin-1-yl)ethanone]
